Experiments:
[1] = biological target: T1, recombinant SARS-CoV-2 3CLpro (Severe acute respiratory syndrome coronavirus 2, UniProt P0DTD1); test: cell-based
[2] = tested on: HCoV-229E; test: microbe, parasite or virus in culture; type: cell-based; details: Human coronavirus 229E, Caco-2, read-out: HCoV-229E EC50
[3] = biological target: T1, recombinant SARS-CoV-2 3CLpro; test: biochemical
[4] = tested on: SARS-CoV-2 Omicron BA.5; test: microbe, parasite or virus in culture; type: cell-based; details: Severe acute respiratory syndrome coronavirus 2, Calu-3, read-out: BA.5 EC50 Calu-3, nucleocapsid, Calu-3, nucleocapsid staining
[5] = tested on: SARS-CoV-2 Omicron XBB.1.5; test: microbe, parasite or virus in culture; type: cell-based; details: Severe acute respiratory syndrome coronavirus 2, Caco-2, read-out: XBB.1.5 EC50, nucleocapsid
[6] = tested on: SARS-CoV-2 Omicron BQ.1.1; test: microbe, parasite or virus in culture; type: cell-based; details: Severe acute respiratory syndrome coronavirus 2, Calu-3, read-out: BQ.1.1 EC50 Calu-3, nucleocapsid
[7] = tested on: SARS-CoV-2 B.1.617.2 Delta; test: microbe, parasite or virus in culture; type: cell-based; details: Severe acute respiratory syndrome coronavirus 2, Calu-3, read-out: Delta EC50

Compound	IC50 [1] [nM]	EC50 [2] [nM]	IC50 [3] [nM]	EC50 [4] [nM]	EC50 [5] [nM]	EC50 [6] [nM]	EC50 [7] [nM]
COc1ccc(N(Cc2cc(Cl)cs2)C(=O)Cc2cncc3ccccc23)cc1 [C2, N-((4-chlorothiophen-2-yl)methyl)-2-(isoquinolin-4-yl)-N-(4-methoxyphenyl)acetamide]	600 ± 200	5600 ± 1400	8500 ± 1700	–	–	–	–
CC(C)(C)c1ccc(N(Cc2cc(Cl)cs2)C(=O)Cc2cncc3ccccc23)cc1 [C3, N-(4-(tert-butyl)phenyl)-N-((4-chlorothiophen-2-yl)methyl)-2-(isoquinolin-4-yl)acetamide]	1200 ± 1000	9600 ± 1000	5000 ± 300	–	–	–	–
CSc1ccc(N(Cc2cc(Cl)cs2)C(=O)Cc2cncc3ccccc23)cc1 [C4, N-((4-chlorothiophen-2-yl)methyl)-2-(isoquinolin-4-yl)-N-(4-(methylthio)phenyl)acetamide]	600 ± 300	7900 ± 3800	2300 ± 200	–	–	–	–
CN(C)c1ccc(N(Cc2cc(Cl)cs2)C(=O)Cc2cncc3ccccc23)cc1 [C5, N-((4-chlorothiophen-2-yl)methyl)-N-(4-(dimethylamino)phenyl)-2-(isoquinolin-4-yl)acetamide]	–	4200 ± 700	900 ± 600	100	100	300	3200
CN(C)c1ccc(N(Cc2cc(Cl)cs2)C(=O)Cc2cncc3c(O)cccc23)cc1 [C5b, N-((4-chlorothiophen-2-yl)methyl)-N-(4-(dimethylamino)phenyl)-2-(8-hydroxyisoquinolin-4-yl)acetamide]	–	–	4500 ± 1000	–	–	–	–
C=CCC(c1cc(Cl)cs1)N(C(=O)Cc1cncc2ccccc12)c1ccc(N(C)C)cc1 (stereo not drawn) [C5c, N-(1-(4-chlorothiophen-2-yl)but-3-en-1-yl)-N-(4-(dimethylamino)phenyl)-2-(isoquinolin-4-yl)acetamide]	–	–	1400 ± 800	–	–	–	–
COc1ccc(Cl)cc1CN(C(=O)Cc1cncc2ccccc12)c1ccc(N(C)C)cc1 [C5d, N-(5-chloro-2-methoxybenzyl)-N-(4-(dimethylamino)phenyl)-2-(isoquinolin-4-yl)acetamide]	–	–	2200 ± 700	–	–	–	–
CN(C)c1ccc(N(Cc2cccc(Br)c2)C(=O)Cc2cncc3ccccc23)cc1 [C5e, N-(3-bromobenzyl)-N-(4-(dimethylamino)phenyl)-2-(isoquinolin-4-yl)acetamide]	–	–	1400 ± 800	–	–	–	–
CC(C)(C)[C@H](NC(=O)C(F)(F)F)C(=O)N1C[C@H]2[C@@H]([C@H]1C(=O)N[C@H](C#N)C[C@@H]1CCNC1=O)C2(C)C [C7, Nirmatrelvir, reference compound]	–	2000 ± 1200	–	400	300	400	1300

— PMC10453993 (Emerging Microbes & Infections, 2023)
